Experimental data published in the supplement of paper PMC10307832.

Tests used:
Assay in all cases: relative viability (nuclei count vs DMSO), 5 days (fraction); higher = more cells survive
Salubrinal + Bortezomib = compound: O=C(/C=C/c1ccccc1)NC(NC(=S)Nc1cccc2cccnc12)C(Cl)(Cl)Cl [Salubrinal] + CC(C)C[C@H](NC(=O)[C@H](Cc1ccccc1)NC(=O)c1cnccn1)B(O)O [Bortezomib] (partner 0.002 µM)
Summary of the method: (§1)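 For relative viability, nuclei counts in treated wells were divided by those in vehicle wells. Lung cancer cell lines had been pin-tool dosed in 1536-well plates the day after seeding and cultured for 5 days, then fixed and stained in one step (final 0.05% Triton X-100, 1% formaldehyde, 1 ug/ml Hoechst) and imaged at 4×. Doses were one drug alone or a fixed anchor-drug dose plus five library-drug doses (not always all listed) in √10 steps, and values are duplicate-plate medians.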

Salubrinal + Decitabine = compound: O=C(/C=C/c1ccccc1)NC(NC(=S)Nc1cccc2cccnc12)C(Cl)(Cl)Cl [Salubrinal] + Nc1ncn([C@H]2C[C@H](O)[C@@H](CO)O2)c(=O)n1 [Decitabine] (partner 2 µM)
Summary of the method: as §1

Salubrinal + Olaparib = compound: O=C(/C=C/c1ccccc1)NC(NC(=S)Nc1cccc2cccnc12)C(Cl)(Cl)Cl [Salubrinal] + O=C(c1cc(Cc2n[nH]c(=O)c3ccccc23)ccc1F)N1CCN(C(=O)C2CC2)CC1 [Olaparib] (partner 8 µM)
Summary of the method: as §1

Salubrinal + Crizotinib = compound: O=C(/C=C/c1ccccc1)NC(NC(=S)Nc1cccc2cccnc12)C(Cl)(Cl)Cl [Salubrinal] + C[C@@H](Oc1cc(-c2cnn(C3CCNCC3)c2)cnc1N)c1c(Cl)ccc(F)c1Cl [Crizotinib] (partner 1 µM)
Summary of the method: as §1

Which results are given for UMC-11?
relative viability (Salubrinal + Bortezomib; first compound 0.08 µM): 0.747; relative viability (Salubrinal + Bortezomib; first compound 0.253 µM): 0.462; relative viability (Salubrinal + Bortezomib; first compound 0.8 µM): 1.29; relative viability (Salubrinal + Bortezomib; first compound 2.53 µM): 0.904; relative viability (Salubrinal + Bortezomib; first compound 8 µM): 0.575; relative viability (Salubrinal + Decitabine; first compound 0.08 µM): 0.548; relative viability (Salubrinal + Decitabine; first compound 0.253 µM): 0.608; relative viability (Salubrinal + Decitabine; first compound 0.8 µM): 0.674; relative viability (Salubrinal + Decitabine; first compound 2.53 µM): 0.606; relative viability (Salubrinal + Decitabine; first compound 8 µM): 0.561; relative viability (Salubrinal + Olaparib; first compound 0.08 µM): 0.355; relative viability (Salubrinal + Olaparib; first compound 0.253 µM): 0.368; relative viability (Salubrinal + Olaparib; first compound 0.8 µM): 0.386; relative viability (Salubrinal + Olaparib; first compound 2.53 µM): 0.337; relative viability (Salubrinal + Olaparib; first compound 8 µM): 0.393; relative viability (Salubrinal + Crizotinib; first compound 0.08 µM): 0.577; relative viability (Salubrinal + Crizotinib; first compound 0.253 µM): 0.54; relative viability (Salubrinal + Crizotinib; first compound 0.8 µM): 0.586; relative viability (Salubrinal + Crizotinib; first compound 2.53 µM): 0.578; relative viability (Salubrinal + Crizotinib; first compound 8 µM): 0.599
